Data: the Kinase Knowledgebase extract (Sharma et al. 2016)

Target: EGFR (human) (UniProt P00533)
Conditions: hn5

Sequence of EGFR (human) (P00533 whole entry, looked up): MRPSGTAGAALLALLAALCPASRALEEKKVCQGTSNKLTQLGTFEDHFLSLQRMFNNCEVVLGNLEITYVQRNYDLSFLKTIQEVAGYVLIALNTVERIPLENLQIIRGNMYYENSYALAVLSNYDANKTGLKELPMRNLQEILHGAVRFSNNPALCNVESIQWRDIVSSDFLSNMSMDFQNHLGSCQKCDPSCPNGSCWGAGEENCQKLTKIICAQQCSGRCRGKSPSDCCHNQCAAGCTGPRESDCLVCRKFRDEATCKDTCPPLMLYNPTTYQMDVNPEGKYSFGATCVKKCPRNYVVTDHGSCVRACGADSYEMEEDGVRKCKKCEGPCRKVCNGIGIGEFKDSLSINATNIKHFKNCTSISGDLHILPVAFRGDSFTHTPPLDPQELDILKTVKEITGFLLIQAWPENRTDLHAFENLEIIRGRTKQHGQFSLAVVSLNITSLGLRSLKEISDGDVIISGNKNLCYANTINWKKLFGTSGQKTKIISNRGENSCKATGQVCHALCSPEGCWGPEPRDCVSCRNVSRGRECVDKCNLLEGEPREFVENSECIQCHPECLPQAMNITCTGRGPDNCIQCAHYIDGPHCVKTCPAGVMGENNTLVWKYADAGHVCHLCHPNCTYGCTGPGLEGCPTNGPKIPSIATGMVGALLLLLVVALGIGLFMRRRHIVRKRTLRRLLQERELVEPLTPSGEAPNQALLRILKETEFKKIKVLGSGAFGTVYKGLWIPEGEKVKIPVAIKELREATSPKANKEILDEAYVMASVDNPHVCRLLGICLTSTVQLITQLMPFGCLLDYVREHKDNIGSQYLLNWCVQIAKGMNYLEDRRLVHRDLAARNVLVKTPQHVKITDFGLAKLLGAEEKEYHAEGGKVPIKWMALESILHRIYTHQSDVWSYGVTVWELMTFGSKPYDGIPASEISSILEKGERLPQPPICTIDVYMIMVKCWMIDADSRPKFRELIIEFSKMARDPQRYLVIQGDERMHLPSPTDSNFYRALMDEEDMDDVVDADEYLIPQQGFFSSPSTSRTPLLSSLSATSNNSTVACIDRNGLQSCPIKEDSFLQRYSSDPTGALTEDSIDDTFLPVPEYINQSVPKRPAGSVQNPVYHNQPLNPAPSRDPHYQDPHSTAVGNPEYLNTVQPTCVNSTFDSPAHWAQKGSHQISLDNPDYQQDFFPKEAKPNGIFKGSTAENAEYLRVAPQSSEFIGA

Row | Compound | IC50 [nM]
1 | CS(=O)(=O)CCNCCCCOc1ccc2ncnc(Nc3ccc(OCc4cccc(F)c4)c(Cl)c3)c2c1 | 5000 to 25000
2 | CS(=O)(=O)CCNCCCCOc1ccc2ncnc(Nc3ccc(OCc4ccccc4)cc3)c2c1 | < 5000
3 | CN(CCCOc1ccc2ncnc(Nc3ccc(OCc4ccccc4)cc3)c2c1)CCS(C)(=O)=O | < 5000
4 | CS(=O)(=O)CCNCCCCOc1ccc2ncnc(Nc3ccc(S(=O)(=O)c4ccccc4)cc3)c2c1 | < 5000
5 | CS(=O)(=O)CCNCCCOc1ccc2ncnc(Nc3ccc(OCc4ccccc4)cc3)c2c1 | 5000 to 25000

Target: EGFR (UniProt P00533)
Conditions: not given

Sequence of EGFR (P00533 whole entry, looked up): as above

Row | Compound | IC50 [nM]
6 | NC(=O)CNCc1ccc2ncnc(Nc3ccc4c(cnn4Cc4ccccc4)c3)c2c1 | < 100
7 | CN(CC(N)=O)Cc1ccc2ncnc(Nc3ccc4c(cnn4Cc4ccccc4)c3)c2c1 | < 100
8 | O=C(O)CNCc1ccc2ncnc(Nc3ccc4c(cnn4Cc4ccccc4)c3)c2c1 | < 100
9 | CS(=O)(=O)CCNCc1ccc2ncnc(Nc3ccc4c(cnn4Cc4ccccc4)c3)c2c1 | < 100
10 | CC(C)(C)OC(=O)[C@H]1CCCN1Cc1ccc2ncnc(Nc3ccc4c(cnn4Cc4ccccc4)c3)c2c1 | 100 to 1000
11 | NC(=O)[C@@H]1CCCN1Cc1ccc2ncnc(Nc3ccc4c(cnn4Cc4ccccc4)c3)c2c1 | < 100
